Measurements published in US10975068B2, “6-aminopyridin-3-yl thiazoles as modulators of RORγT” (Janssen Pharmaceutica NV, priority 2016, dated 2021).
Where two headings read alike, the source gives them in different places.

Key:
[1] = molecular target: human RORγt ligand binding domain (RORγt LBD) (Homo sapiens (Human), UniProt P51449); test: RORγt ThermoFluor® assay (thermal shift binding); conditions: read-out: ThermoFluor® Assay, Kd
Excerpt: ThermoFluor® is a fluorescence based assay that estimates ligand binding affinities by measuring the effect of a ligand on protein thermal stability (Pantoliano, M. W., Petrella, E. C., Kwasnoski, J. D., Lobanov, V. S., Myslik, J., Graf, E., Carver, T., Asel, E., Springer, B. A., Lane, P., and Salemme, F. R. (2001) High-density miniaturized thermal shift assays as a general strategy for drug discovery. J Biomol Screen 6, 429-40, and Matulis, D., Kranz, J. K., Salemme, F. R., and Todd, M. J. (2005) Thermodynamic stability of carbonic anhydrase: measurements of binding affinity and stoichiometry using ThermoFluor. Biochemistry 44, 5258-66). This approach is applicable to a wide variety of systems, and rigorous in theoretical interpretation through quantitation of equilibrium binding constants (KD).
The shift in the melting point described as a ΔTm is proportional to the concentration and affinity of the ligand. The compound potency may be compared as a rank order of either ΔTm values at a single compound concentration or in terms of KD values, estimated from concentration response curves.
RORγt ThermoFluor® Assay Construct
For the RORγt construct used in the ThermoFluor® assay, numbering for the nucleotide sequences was based on the reference sequence for human RORγt, transcript variant 2, NCBI Accession: NM_001001523.1 (SEQ ID NO:1). Nucleotides 850-1635 (SEQ ID NO:2) coding for the wild type human RORγt ligand binding domain (RORγt LBD) were cloned into the pHIS1 vector, a modified pET E. coli expression vector (Accelagen, San Diego), containing an in-frame N-terminal His-tag and a TurboTEV protease cleavage site (ENLYFQG, SEQ ID NO:3) upstream of the cloned insert sequence. The amino acid sequence for the RORγt construct used in the Thermofluor® assay is shown as SEQ ID NO:4.
ThermoFluor® experiments were carried out using instruments owned by Janssen Research and Discovery, L.L.C. through its acquisition of 3-Dimensional Pharmaceuticals, Inc. 1,8-ANS (Invitrogen) was used as a fluorescent dye. Protein and compound solutions are dispensed into black 384-well polypropylene PCR microplates (Abgene) and overlayed with silicone oil (1 μL, Fluka, type DC 200) to prevent evaporation.
Bar-coded assay plates are robotically loaded onto a thermostatically controlled PCR-type thermal block and then heated at a typical ramp-rate of 1° C./min for all experiments. Fluorescence was measured by continuous illumination with UV light (Hamamatsu LC6) supplied via fiber optic and filtered through a band-pass filter (380-400 nm; >6 OD cutoff). Fluorescence emission of the entire 384-well plate was detected by measuring light intensity using a CCD camera (Sensys, Roper Scientific) filtered to detect 500±25 nm, resulting in simultaneous and independent readings of all 384 wells. Images were collected at each temperature, and the sum of the pixel intensity in a given area of the assay plate was recorded versus temperature. Reference wells contained RORγt without compounds, and the assay conditions were as follows: • 0.065 mg/mL RORγt • 60 μM 1,8-ANS • 100 mM Hepes, pH 7.0 • 10 mM NaCl • 2.5 mM GSH • 0.002% Tween-20
Project compounds were arranged in a pre-dosed mother plate (Greiner Bio-one) wherein compounds are serially diluted in 100% DMSO by 1:2 from a high concentration of 10 mM over 12 columns within a series (column 12 is a reference well containing DMSO, no compound). The compounds were robotically dispensed directly into assay plates (×=46 nL) using a Hummingbird capillary liquid handling instrument (Digilab). Following compound dispense, protein and dye in buffer was added to achieve the final assay volume of 3 μL, followed by 1 μL of silicone oil.

[2] = molecular target: full-length human RORγt (Homo sapiens (Human), UniProt P51449); test: RORγt (full-length human) reporter assay, Conditions B or C; assay type: cell-based; conditions: for IC50: read-out: RORγt (FL) Reporter Assay B or C, IC50; for RORγt (FL) Reporter Assay B or C, % inhibition (value marked *): marked *: footnote not given
full-length human RORγt, sequence (P51449 other isoform, or with tags, fused parts or gaps): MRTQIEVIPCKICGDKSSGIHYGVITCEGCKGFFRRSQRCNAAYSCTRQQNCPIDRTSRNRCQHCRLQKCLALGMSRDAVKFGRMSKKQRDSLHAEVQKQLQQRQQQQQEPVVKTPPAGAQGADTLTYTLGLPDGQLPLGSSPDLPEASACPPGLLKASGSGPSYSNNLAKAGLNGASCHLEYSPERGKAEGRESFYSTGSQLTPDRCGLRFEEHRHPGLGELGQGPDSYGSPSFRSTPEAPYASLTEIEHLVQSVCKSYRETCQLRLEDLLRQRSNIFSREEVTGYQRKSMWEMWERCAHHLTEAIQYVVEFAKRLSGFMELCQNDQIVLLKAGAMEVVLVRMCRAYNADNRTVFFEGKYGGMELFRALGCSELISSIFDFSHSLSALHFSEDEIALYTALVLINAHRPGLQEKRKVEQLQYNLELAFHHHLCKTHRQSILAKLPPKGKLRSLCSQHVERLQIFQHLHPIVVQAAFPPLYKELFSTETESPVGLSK
Excerpt: RORγt (Full-Length Human) Reporter Assay:
Cells used in this assay were transiently co-transfected with three different plasmids, one expressing the GAL4-DNA binding domain (DBD)-RORγt fusion protein under control of a CMV promoter (NH2-Gal4-DBD:RORC-COOH in pCMV-BD, Stratagene #211342), and two reporter plasmids—the firefly luciferase reporter under control of a GAL4 promoter (pFR-Luc 2×GAL4) and Renilla luciferase reporter under control of CMV promoter (pRL-CMV, Promega # E2261). The full-length coding sequence was used for human RORγt, i.e., nucleotides 142-1635 of human RORγt, transcript variant 2, NCBI Accession: NM_001001523.1 (SEQ ID NO:1). HEK293T cells were plated at 35,000 per well in 96-well plate in medium of DMEM with 10% FBS. After 18-22 hours incubation, the transfection was carried out by using a PEI solution with 170.5 ng total DNA/well (50 ng pCMV-BD-ROR plus 20 ng of pFR-Luc reporter and 0.5 ng of pRL-CMV reporter plus 100 ng Carrier DNA (Clontech #630440) for each well). 4-6 hours after transfection, cells were treated with compounds for overnight in the medium with final concentration of FBS 1.3% and DMSO 0.1%. After overnight (16 to 20 hours) incubation, media were removed and cells were lysed with 50 μL Glo Lysis Buffer (Promega) for 10-15 minutes followed by 10 minute incubation with 50 μL Dual Glo reagent (Promega) at room temperature. Firefly luciferase luminescence was measured using a BMG Pherastar plate reader. To each well, 50 μL Stop and Glo reagent was added and incubated for 10 minutes at room temperature. Renilla luminescence was measured using a BMG Pherastar plate reader. To calculate the effect of compounds on RORγt activity, firefly values were normalized against values of DMSO only and values of reference compound at saturating concentration, then further normalized against Renilla signals. IC50s were generated by plotting final Renilla normalized data against compound concentration and percent inhibition was calculated against DMSO control.
Cells used in this assay were transiently co-transfected with three different plasmids, one expressing the GAL4-DNA binding domain (DBD)-RORγt fusion protein under control of a CMV promoter (NH2-Gal4-DBD:RORC-COOH in pCMV-BD, Stratagene #211342), and two reporter plasmids—the firefly luciferase reporter under control of a GAL4 promoter (pFR-Luc 2×GAL4) and Renilla luciferase reporter under control of CMV promoter (pRL-CMV, Promega # E2261). The full-length coding sequence was used for human RORγt, i.e., nucleotides 142-1635 of human RORγt, transcript variant 2, NCBI Accession: NM_001001523.1 (SEQ ID NO:1). HEK293T cells were plated at 8750 cells per well in 384-well plate in medium of DMEM with 10% FBS. After 18-22 hours incubation, the transfection was carried out by using a PEI solution with 42.6 ng total DNA/well (12.5 ng pCMV-BD-ROR plus 5 ng of pFR-Luc reporter and 0.125 ng of pRL-CMV reporter plus 25 ng Carrier DNA (Clontech #630440) for each well). 4-6 hours after transfection, cells were treated with compounds for overnight in the medium with final concentration of FBS 1.3% and DMSO 0.1%. After overnight (16 to 20 hours) incubation, media were removed and cells were lysed with 20 μL Glo Lysis Buffer (Promega) for 10-15 minutes followed by 10 minute incubation with 20 μL Dual Glo reagent (Promega) at room temperature. Firefly luciferase luminescence was measured using a BMG Pherastar plate reader. To each well, 20 μL Stop and Glo reagent was added and incubated for 10 minutes at room temperature. Renilla luminescence was measured using a BMG Pherastar plate reader. To calculate the effect of compounds on RORγt activity, firefly values were normalized against values of DMSO only and values of reference compound at saturating concentration, then further normalized against Renilla signals.

human RORγt ligand binding domain (RORγt LBD), sequence (P51449 other isoform, or with tags, fused parts or gaps): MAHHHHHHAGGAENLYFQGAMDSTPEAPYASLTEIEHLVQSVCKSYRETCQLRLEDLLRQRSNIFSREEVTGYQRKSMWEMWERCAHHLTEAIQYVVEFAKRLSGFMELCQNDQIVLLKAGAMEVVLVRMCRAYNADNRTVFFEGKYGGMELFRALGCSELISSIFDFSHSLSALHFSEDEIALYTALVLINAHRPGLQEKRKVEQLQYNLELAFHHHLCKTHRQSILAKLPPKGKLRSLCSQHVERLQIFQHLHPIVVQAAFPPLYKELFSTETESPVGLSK

C[C@H]1CCCCN1C(=O)c1nc(C(=O)NCC(C)(C)O)sc1-c1cnc(NC2CCCCC2)cc1C(F)F [Example 34, (S)-5-(6-(Cyclohexylamino)-4-(difluoromethyl)pyridin-3-yl)-N-(2-hydroxy-2-methylpropyl)-4-(2-methylpiperidine-1-carbonyl)thiazole-2-carboxamide]
Kd [1]: 0.29 nM | IC50 ([2]; Conditions B or C): 6.9 nM | inhibition at 6 µM ([2]; read-out: RORγt (FL) Reporter Assay B or C, % inhibition @ 6 μM, Conditions B or C, @ 6 μM): 105%

CC[C@H](Nc1cc(C(F)F)c(-c2sc(C(=O)NC3CS(=O)(=O)C3)nc2C(=O)N2CCC[C@@H]2C)cn1)C(F)(F)F [Example 240, 5-[4-(Difluoromethyl)-6-[[(1S)-1-(trifluoromethyl)propyl]amino]-3-pyridyl]-N-(1,1-dioxothietan-3-yl)-4-[(2S)-2-methylpyrrolidine-1-carbonyl]thiazole-2-carboxamide]
Kd [1]: 2.5 nM | RORγt (FL) Reporter Assay B or C, % inhibition (value marked *) ([2]; Conditions B or C): 107* % | IC50 ([2]; Conditions B or C): 57 nM

CC[C@H](Nc1cc(C(F)F)c(-c2sc(C(=O)N[C@H]3COC[C@H]3O)nc2C(=O)N2CCC[C@@H]2C)cn1)C(F)(F)F (single isomer, unassigned) [Example 165, 5-(4-(Difluoromethyl)-6-(((S)-1,1,1-trifluorobutan-2-yl)amino)pyridin-3-yl)-N-((3S*,4S*)-4-hydroxytetrahydrofuran-3-yl)-4-((S)-2-methylpyrrolidine-1-carbonyl)thiazole-2-carboxamide]
Kd [1]: 3.1 nM | RORγt (FL) Reporter Assay B or C, % inhibition (value marked *) ([2]; Conditions B or C): 98* % | IC50 ([2]; Conditions B or C): 40 nM

C[C@H]1CCCCN1C(=O)c1nc(C(=O)NCC(C)(C)O)sc1-c1cnc(NC2(C)CCC2)cc1C(F)(F)F [Example 81, (S)—N-(2-Hydroxy-2-methylpropyl)-5-(6-((1-methylcyclobutyl)amino)-4-(trifluoromethyl)pyridin-3-yl)-4-(2-methylpiperidine-1-carbonyl)thiazole-2-carboxamide]
Kd [1]: 0.17 nM | RORγt (FL) Reporter Assay B or C, % inhibition (value marked *) ([2]; Conditions B or C): 105* % | IC50 ([2]; Conditions B or C): 9.3 nM

CC[C@H](Nc1cc(C(F)F)c(-c2sc(C(=O)N[C@H](C)[C@H](C)O)nc2C(=O)N2CCC[C@@H]2C)cn1)C(F)(F)F (relative stereo) [Example 218, 5-(4-(Difluoromethyl)-6-(((S)-1,1,1-trifluorobutan-2-yl)amino)pyridin-3-yl)-N-((2R*,3S*)-3-hydroxybutan-2-yl)-4-((S)-2-methylpyrrolidine-1-carbonyl)thiazole-2-carboxamide]
Kd [1]: 7.8 nM | RORγt (FL) Reporter Assay B or C, % inhibition (value marked *) ([2]; Conditions B or C): 111* % | IC50 ([2]; Conditions B or C): 45 nM

CC[C@H](Nc1cc(C(F)F)c(-c2sc(C(=O)NC3CCS(=O)(=O)CC3)nc2C(=O)N2CCC[C@@H]2C)cn1)C(F)(F)F [Example 232, 5-(4-(Difluoromethyl)-6-(((S)-1,1,1-trifluorobutan-2-yl)amino)pyridin-3-yl)-N-(1,1-dioxidotetrahydro-2H-thiopyran-4-yl)-4-((S)-2-methylpyrrolidine-1-carbonyl)thiazole-2-carboxamide]
Kd [1]: 3.4 nM | RORγt (FL) Reporter Assay B or C, % inhibition (value marked *) ([2]; Conditions B or C): 122* % | IC50 ([2]; Conditions B or C): 69 nM

CC[C@H](Nc1cc(C(F)F)c(-c2sc(C(=O)N[C@H]3COC[C@@H]3O)nc2C(=O)N2CCC[C@@H]2C)cn1)C(F)(F)F [Example 239, 5-[4-(Difluoromethyl)-6-[[(1S)-1-(trifluoromethyl)propyl]amino]-3-pyridyl]-N-[(3S,4R)-4-hydroxytetrahydrofuran-3-yl]-4-[(2S)-2-methylpyrrolidine-1-carbonyl]thiazole-2-carboxamide]
Kd [1]: 5.4 nM | RORγt (FL) Reporter Assay B or C, % inhibition (value marked *) ([2]; Conditions B or C): 105* % | IC50 ([2]; Conditions B or C): 19 nM

C[C@H]1CCCN1C(=O)c1nc(C(N)=O)sc1-c1cnc(NC(C)(C)C)cc1C(F)(F)F [Example 308, (S)-5-(6-(tert-Butylamino)-4-(trifluoromethyl)pyridin-3-yl)-4-(2-methylpyrrolidine-1-carbonyl)thiazole-2-carboxamide]
Kd [1]: 96 nM | inhibition at 3 µM ([2]; at 3 μM compound concentration, read-out: RORγt (FL) Reporter Assay B or C, % inhibition): 107% | IC50 [2]: 260 nM
